The values that follow come from patent US20010056085A1, “Methods of using vesicant drug formulations” (priority 1996, published 2001).

This assay in a line: Half-life of ADR destruction by UVA light in the presence of test compounds (decrease in absorbance at 480 nm). It is filed as physicochemical.
The mark [1] stands for this setting: UVA light, 100 μM test compound alone.
[2] abbreviates: UVA light, 100 μM test compound with 0.5 μM riboflavin.

“And” between values parts separate entries of the source, which are not always exact repeats. Identical values can stand only once. Like-named read-outs stand apart in the source and are kept apart here.

`Nc1cc[nH]c(=O)n1` [Cytosine]: the “Half-Life of ADR Destruction, 100 μM Test Compound” value under setting [1] is 50.2 min. Also, the “Half-Life of ADR Destruction, 100 μM Test Compound and 0.5 μM Riboflavin” value under setting [2] came to 43.0 min. On to `COC(=O)c1ccc(N)cc1` [Methyl-4-aminobenzoate], for which the “Half-Life of ADR Destruction, 100 μM Test Compound and 0.5 μM Riboflavin” value under setting [2] was determined as 10.8 min. For the compound `O=C1COc2ccccc21` [3-Coumaranone], under setting [1], the “Half-Life of ADR Destruction, 100 μM Test Compound” value came out at 11.2 min. Besides, under setting [2], the “Half-Life of ADR Destruction, 100 μM Test Compound and 0.5 μM Riboflavin” value turned out to be 11.2 min. On to `O=C(O)C(O)Cc1c[nH]c2ccccc12` (stereo not drawn) [3-Indolelactic acid], for which, under setting [2], the “Half-Life of ADR Destruction, 100 μM Test Compound and 0.5 μM Riboflavin” value stood at 6.40 min.

Turning to `Nc1ccc(OC(F)(F)F)cc1` [4-(Trifluoromethyoxy) Aniline], the “Half-Life of ADR Destruction, 100 μM Test Compound and 0.5 μM Riboflavin” value was 43.0 min. On to `Nc1ccc2cc(S(=O)(=O)O)cc(O)c2c1` [6-Amino-4-hydroxy-2-naphthalenesulfonic acid], for which the “Half-Life of ADR Destruction, 100 μM Test Compound and 0.5 μM Riboflavin” value under setting [2] is 50.2 min. As to `c1ccc(-c2cc3ccccc3[nH]2)cc1` [2-Phenyl Indole], the “Half-Life of ADR Destruction, 100 μM Test Compound and 0.5 μM Riboflavin” value under setting [2] was 14.3 min. For `CCC(C)c1ccccc1N` (stereo not drawn) [2-sec-Butyl Aniline], under setting [2], the “Half-Life of ADR Destruction, 100 μM Test Compound and 0.5 μM Riboflavin” value worked out at 10.4 min. Regarding `OCc1cccc2ccccc12` [1-Naphthalenemethanol], the “Half-Life of ADR Destruction, 100 μM Test Compound and 0.5 μM Riboflavin” value under setting [2] was 50.2 min. Turning to `O=C(O)C(=O)Cc1c[nH]c2ccccc12` [Indole-3-pyruvic acid], the “Half-Life of ADR Destruction, 100 μM Test Compound and 0.5 μM Riboflavin” value under setting [2] is 6.74 min.

In the case of `COc1ccc2[nH]cc(C[C@H](N)C(=O)O)c2c1` [5-Methoxy-tryptophan], the “Half-Life of ADR Destruction, 100 μM Test Compound and 0.5 μM Riboflavin” value under setting [2] was 21.5 min. On to `O=C(O)c1cc2ccccc2[nH]1` [Indole-2-carboxylic acid], for which the “Half-Life of ADR Destruction, 100 μM Test Compound and 0.5 μM Riboflavin” value under setting [2] is 9.12 min. Same read-out and setting: then `CC(C(=O)O)c1ccc(-c2ccccc2)cc1` (stereo not drawn) [4-Phenyl α-Methyl-Phenylacetic Acid], with 27.4 min; and `CCCc1ccccc1N` [2-Propyl Aniline], with 9.41 min.

As to `O=C(O)c1cccc2c1-c1ccccc1C2=O` [9-Fluorenone-4-carboxylic acid], the “Half-Life of ADR Destruction, 100 μM Test Compound” value under setting [1] turned out to be 50.2 min. Further, the “Half-Life of ADR Destruction, 100 μM Test Compound and 0.5 μM Riboflavin” value under setting [2] stood at 43.0 min.

As to `CC=Cc1ccccc1O` [2-Propenyl Phenol], the “Half-Life of ADR Destruction, 100 μM Test Compound” value came to 50.2 min. Take `Cc1cc(NC(=O)C2=C(O)c3ccccc3S(=O)(=O)N2C)no1` [Isoxicam, reference compound]: the “Half-Life of ADR Destruction, 100 μM Test Compound” value under setting [1] was found to be 75.3 min. Turning to `Nc1cccc(CO)c1` [3-Amino Benzyl Alcohol], the “Half-Life of ADR Destruction, 100 μM Test Compound and 0.5 μM Riboflavin” value under setting [2] is 7.34 min. As for `O=C(O)C1c2ccccc2-c2ccccc21` [9-Fluorene Carboxylic acid], under setting [1], the “Half-Life of ADR Destruction, 100 μM Test Compound” value was determined as 50.2 min. Further, the “Half-Life of ADR Destruction, 100 μM Test Compound and 0.5 μM Riboflavin” value under setting [2] was determined as 43.0 min. On to `OCCc1ccc(O)cc1` [4-Hydroxy Phenylethyl Alcohol], for which the “Half-Life of ADR Destruction, 100 μM Test Compound and 0.5 μM Riboflavin” value under setting [2] was found to be 50.2 min. On the same count and under the same terms, next, `Cc1ccc(N)cc1CO` [3-Amino-6-Methyl Benzyl Alcohol]: 16.7 min; `Nc1cc(N)cc(C(=O)O)c1` [3,5-Diamino Benzoic Acid]: 75.3 min. Consider `NC(=O)Cc1c[nH]c2ccccc12` [Indole-3-acetamide], for which the “Half-Life of ADR Destruction, 100 μM Test Compound and 0.5 μM Riboflavin” value under setting [2] was determined as 11.2 min. In the case of `Nc1cccc(Cc2ccccc2)c1` [3-Benzylaniline], under setting [2], the “Half-Life of ADR Destruction, 100 μM Test Compound and 0.5 μM Riboflavin” value amounted to 6.54 min.

`CCCc1ccc(N)cc1` [4-Propyl Aniline]: under setting [2], the “Half-Life of ADR Destruction, 100 μM Test Compound and 0.5 μM Riboflavin” value is 7.34 min. On the same count and under the same terms, then `Nc1ccccc1C(=O)CC(N)C(=O)O` (stereo not drawn) [Kynurenine], with 75.3 min.

For `Nc1nc2c(ncn2[C@@H]2O[C@H](CO)[C@@H](O)[C@H]2O)c(=O)[nH]1` [Guanosine], under setting [1], the “Half-Life of ADR Destruction, 100 μM Test Compound” value worked out at 75.3 min. In addition, the “Half-Life of ADR Destruction, 100 μM Test Compound and 0.5 μM Riboflavin” value under setting [2] was found to be 14.3 min. `COc1ccc2[nH]cc(CCO)c2c1` [5-Methoxy-3-indoleethanol]: the “Half-Life of ADR Destruction, 100 μM Test Compound” value under setting [1] worked out at 33.5 min. Also, the “Half-Life of ADR Destruction, 100 μM Test Compound and 0.5 μM Riboflavin” value under setting [2] was 9.12 min.

Turning to `NC(=O)NC(=O)c1ccccc1` [Benzoylurea], the “Half-Life of ADR Destruction, 100 μM Test Compound” value under setting [1] is 43.0 min. As for `O=C(Oc1ccc2[nH]ccc2c1)c1ccccc1` [5-Benzoyloxy Indole], the “Half-Life of ADR Destruction, 100 μM Test Compound and 0.5 μM Riboflavin” value under setting [2] turned out to be 43.0 min.

Take `O=C(O)C=Cc1ccc(O)c(O)c1` [3,4-Dihydroxy Cinnamic Acid]: the “Half-Life of ADR Destruction, 100 μM Test Compound” value under setting [1] amounted to 75.3 min. In the case of `c1ccc2c(c1)CCN2` [Indoline], the “Half-Life of ADR Destruction, 100 μM Test Compound and 0.5 μM Riboflavin” value was determined as 75.3 min.

With `COc1ccc2c(C(=O)O)cccc2c1` [6-Methoxynaphthalene-1-carboyxlic acid], the “Half-Life of ADR Destruction, 100 μM Test Compound” value under setting [1] came to 18.8 min. Further, the “Half-Life of ADR Destruction, 100 μM Test Compound and 0.5 μM Riboflavin” value under setting [2] amounted to 4.49 min.

On to `COc1ccc(CCO)cc1` [4-Methoxy Phenylethyl Alcohol], for which, under setting [1], the “Half-Life of ADR Destruction, 100 μM Test Compound” value was 43.0 min. The “Half-Life of ADR Destruction, 100 μM Test Compound and 0.5 μM Riboflavin” value under setting [2] was 5.47 min.

For `OCCOc1ccc2ccccc2c1` [2-(2-naphthyloxy) Ethanol], the “Half-Life of ADR Destruction, 100 μM Test Compound” value under setting [1] was found to be 30.1 min. In addition, under setting [2], the “Half-Life of ADR Destruction, 100 μM Test Compound and 0.5 μM Riboflavin” value was 2.95 min. For `OCC=Cc1ccccc1` [Cinnamyl Alcohol], under setting [1], the “Half-Life of ADR Destruction, 100 μM Test Compound” value stood at 43.0 min. For `COc1ccc(C=C(C)C=O)cc1` [4-Methoxy-α-Methyl Cinnamaldehyde], under setting [2], the “Half-Life of ADR Destruction, 100 μM Test Compound and 0.5 μM Riboflavin” value came out at 20.1 min. Turning to `O=C(O)C=Cc1ccc(O)cc1` [4-Hydroxy Cinnamic Acid], the “Half-Life of ADR Destruction, 100 μM Test Compound” value under setting [1] was 50.2 min.

Take `Nc1ccc(O)c(C(=O)O)c1` [3-Amino-6-Hydroxy Benzoic Acid]: the “Half-Life of ADR Destruction, 100 μM Test Compound and 0.5 μM Riboflavin” value under setting [2] is 301.0 min.

On to `CNc1ccc(C(=O)O)cc1` [4-(Methylamino) Benzoic Acid], for which the “Half-Life of ADR Destruction, 100 μM Test Compound and 0.5 μM Riboflavin” value under setting [2] was 75.3 min. In the case of `O=C(O)c1cccc2c1C(=O)c1ccccc1-2` [9-Fluorenone-1-carboxylic acid], the “Half-Life of ADR Destruction, 100 μM Test Compound” value under setting [1] is 43.0 min. Further, the “Half-Life of ADR Destruction, 100 μM Test Compound and 0.5 μM Riboflavin” value under setting [2] was 43.0 min. As to `O=c1cc[nH]c(=O)[nH]1` [Uracil], the “Half-Life of ADR Destruction, 100 μM Test Compound and 0.5 μM Riboflavin” value under setting [2] worked out at 50.2 min.

For the compound `Oc1ccc2[nH]ccc2c1` [5-Hydroxy Indole], the “Half-Life of ADR Destruction, 100 μM Test Compound and 0.5 μM Riboflavin” value under setting [2] was 150.5 min and 75.3 min. For the compound `COc1cc(C=CC=O)ccc1O` [3-Methoxy-4-Hydroxy Cinnamaldehyde], the “Half-Life of ADR Destruction, 100 μM Test Compound and 0.5 μM Riboflavin” value under setting [2] is 50.2 min. Take `Cc1c(N)cccc1CO` [3-Amino-2-Methyl Benzyl Alcohol]: the “Half-Life of ADR Destruction, 100 μM Test Compound and 0.5 μM Riboflavin” value under setting [2] stood at 33.5 min. As for `NCc1ccc(CN)cc1` [4-Aminomethyl Benzylamine], the “Half-Life of ADR Destruction, 100 μM Test Compound and 0.5 μM Riboflavin” value under setting [2] is 50.2 min and 33.5 min. Turning to `COc1cc2ccc(=O)oc2cc1O` [7-Hydroxy-6-methoxycoumarin], the “Half-Life of ADR Destruction, 100 μM Test Compound” value under setting [1] amounted to 33.5 min. Under setting [2], the “Half-Life of ADR Destruction, 100 μM Test Compound and 0.5 μM Riboflavin” value turned out to be 33.5 min. For `COc1ccc(C=CC=O)cc1` [4-Methoxy Cinnamaldehyde], the “Half-Life of ADR Destruction, 100 μM Test Compound and 0.5 μM Riboflavin” value under setting [2] amounted to 50.2 min. On the same count and under the same terms, next, `CCCCc1ccccc1N` [2-Butyl Aniline]: 10.2 min; `NCCc1ccc(O)cc1` [4-Hydroxy Phenethylamine (Tyramine), 4-Hydroxy Phenethylamine]: 33.5 min. On to `CC(O)c1ccc2ccccc2c1` (stereo not drawn) [α-Methyl-2-naphthalenemethanol], for which the “Half-Life of ADR Destruction, 100 μM Test Compound” value under setting [1] was 43.0 min. Moreover, the “Half-Life of ADR Destruction, 100 μM Test Compound and 0.5 μM Riboflavin” value under setting [2] was determined as 33.5 min. Regarding `Nc1ccc(C(=O)O)cc1` [4-Amino Benzoic Acid], under setting [2], the “Half-Life of ADR Destruction, 100 μM Test Compound and 0.5 μM Riboflavin” value is 20.6 ± 9.7 min. As to `O=C(c1ccccc1)c1ccccn1` [2-Benzoylpyridine], the “Half-Life of ADR Destruction, 100 μM Test Compound” value under setting [1] was found to be 100.3 min. In addition, the “Half-Life of ADR Destruction, 100 μM Test Compound and 0.5 μM Riboflavin” value under setting [2] was 100.3 min. Consider `O=C(O)C1=CC=C2N=NN=C2C1` [5-Benzotriazole-carboxylic acid], for which the “Half-Life of ADR Destruction, 100 μM Test Compound and 0.5 μM Riboflavin” value under setting [2] was determined as 75.3 min.

For `CCCCCc1ccc(N)cc1` [4-Pentyl Aniline], the “Half-Life of ADR Destruction, 100 μM Test Compound and 0.5 μM Riboflavin” value under setting [2] was determined as 4.12 min. With `Nc1ccccc1CO` [2-Amino Benzyl Alcohol], under setting [2], the “Half-Life of ADR Destruction, 100 μM Test Compound and 0.5 μM Riboflavin” value came to 3.96 min.

In the case of `Cc1ccc2cc[nH]c2c1` [6-Methyl Indole], the “Half-Life of ADR Destruction, 100 μM Test Compound and 0.5 μM Riboflavin” value under setting [2] turned out to be 24.2 ± 1.3 min. For the compound `O=S(=O)(c1ccc(O)cc1)c1ccc(O)cc1` [4,4-Dihydroxy Phenylsulfone], the “Half-Life of ADR Destruction, 100 μM Test Compound” value under setting [1] came out at 43.0 min. Further, under setting [2], the “Half-Life of ADR Destruction, 100 μM Test Compound and 0.5 μM Riboflavin” value amounted to 43.0 min.

`NCc1ccccc1N` [2-Amino Benzylamine]: the “Half-Life of ADR Destruction, 100 μM Test Compound and 0.5 μM Riboflavin” value under setting [2] amounted to 14.3 min. Consider `COc1cccc2cc[nH]c12` [7-Methoxy Indole], for which the “Half-Life of ADR Destruction, 100 μM Test Compound” value under setting [1] was 43.0 min. Besides, the “Half-Life of ADR Destruction, 100 μM Test Compound and 0.5 μM Riboflavin” value under setting [2] stood at 7.72 min. In the same order, the values of `O=C1c2cccc(S(=O)(=O)O)c2C(=O)c2cccc(S(=O)(=O)O)c21` [Anthraquinone-1,5-disulfonic acid] are 30.1 min and 23.2 min.

`NCc1ccc(N)cc1` [4-Amino Benzylamine]: the “Half-Life of ADR Destruction, 100 μM Test Compound and 0.5 μM Riboflavin” value under setting [2] was 7.34 ± 1.13 min.
